Here are results for 5 compounds from ChEMBL document CHEMBL6153174, “Design and Synthesis of Novel Deazapurine DNMT 1 Inhibitors with In Vivo Efficacy in DLBCL” (J Med Chem, 2025).

Calls of active or inactive are those of the source. The calls are words filed in the database; no cut-off is given here.

A short description of assay [1]: Antitumor activity against human TMD8 cells harbouring […] xenografted in mouse model assessed as tumor inhibition rate at 12.5 mg/kg, po QD relative to control. It counts as functional. Details: scale not given: the % may be the effect or the level left.
Assay [2] can be described thus: Antitumor activity against human TMD8 cells harbouring TP53 mutant xenografted in mouse model assessed as tumor inhibition rate at 12.5 mg/kg, po QD relative to control. It counts as functional. Details: scale not given: the % may be the effect or the level left.
Assay [3] can be described thus: Antitumor activity against human TMD8 cells harbouring […] xenografted in mouse model assessed as body weight change at 12.5 mg/kg, po QD relative to control. It is filed as functional.
A short description of assay [4]: Antitumor activity against human TMD8 cells harbouring TP53 mutant xenografted in mouse model assessed as body weight change at 12.5 mg/kg, po QD relative to control. It counts as functional.
Assay [5] can be described thus: Antiproliferative activity against human NK-YS cells assessed as inhibition of cell viability measured after 72 hrs by MTT assay. It is filed as functional, cell-based.
For assay [6], the system named is U2932. Description: Antiproliferative activity against human U2932 cells assessed as inhibition of cell viability measured after 72 hrs by MTT assay. It is filed as functional, cell-based. The settings on record: U2932, 72 h.
The test system of assay [7] is DOHH-2. Description: Antiproliferative activity against human DOHH-2 cells assessed as inhibition of cell viability measured after 72 hrs by MTT assay. The settings on record: DOHH-2, 72 h. It counts as functional, cell-based.
For assay [8], the system named is TMD8. Description: Antiproliferative activity against human TMD8 cells assessed as inhibition of cell viability measured after 72 hrs by MTT assay. The settings on record: TMD8, 72 h. It is filed as functional, cell-based.
Assay [9] relates to Jurkat. Description: Antiproliferative activity against human Jurkat cells assessed as inhibition of cell viability measured after 72 hrs by MTT assay. It is filed as functional, cell-based.
The target in assay [10] is T1, DNA (cytosine-5)-methyltransferase 1 (Homo sapiens, UniProt P26358). In words: Inhibition of DNMT1 in human DOHH-2 cells assessed as inhibition of 5-methylcytosine level at 10 to 1000 nM incubated for 48 hrs by Western blot analysis. It is filed as cell-based. The settings on record: dose 10-1000 nM.
T1 sequence (P26358 whole entry): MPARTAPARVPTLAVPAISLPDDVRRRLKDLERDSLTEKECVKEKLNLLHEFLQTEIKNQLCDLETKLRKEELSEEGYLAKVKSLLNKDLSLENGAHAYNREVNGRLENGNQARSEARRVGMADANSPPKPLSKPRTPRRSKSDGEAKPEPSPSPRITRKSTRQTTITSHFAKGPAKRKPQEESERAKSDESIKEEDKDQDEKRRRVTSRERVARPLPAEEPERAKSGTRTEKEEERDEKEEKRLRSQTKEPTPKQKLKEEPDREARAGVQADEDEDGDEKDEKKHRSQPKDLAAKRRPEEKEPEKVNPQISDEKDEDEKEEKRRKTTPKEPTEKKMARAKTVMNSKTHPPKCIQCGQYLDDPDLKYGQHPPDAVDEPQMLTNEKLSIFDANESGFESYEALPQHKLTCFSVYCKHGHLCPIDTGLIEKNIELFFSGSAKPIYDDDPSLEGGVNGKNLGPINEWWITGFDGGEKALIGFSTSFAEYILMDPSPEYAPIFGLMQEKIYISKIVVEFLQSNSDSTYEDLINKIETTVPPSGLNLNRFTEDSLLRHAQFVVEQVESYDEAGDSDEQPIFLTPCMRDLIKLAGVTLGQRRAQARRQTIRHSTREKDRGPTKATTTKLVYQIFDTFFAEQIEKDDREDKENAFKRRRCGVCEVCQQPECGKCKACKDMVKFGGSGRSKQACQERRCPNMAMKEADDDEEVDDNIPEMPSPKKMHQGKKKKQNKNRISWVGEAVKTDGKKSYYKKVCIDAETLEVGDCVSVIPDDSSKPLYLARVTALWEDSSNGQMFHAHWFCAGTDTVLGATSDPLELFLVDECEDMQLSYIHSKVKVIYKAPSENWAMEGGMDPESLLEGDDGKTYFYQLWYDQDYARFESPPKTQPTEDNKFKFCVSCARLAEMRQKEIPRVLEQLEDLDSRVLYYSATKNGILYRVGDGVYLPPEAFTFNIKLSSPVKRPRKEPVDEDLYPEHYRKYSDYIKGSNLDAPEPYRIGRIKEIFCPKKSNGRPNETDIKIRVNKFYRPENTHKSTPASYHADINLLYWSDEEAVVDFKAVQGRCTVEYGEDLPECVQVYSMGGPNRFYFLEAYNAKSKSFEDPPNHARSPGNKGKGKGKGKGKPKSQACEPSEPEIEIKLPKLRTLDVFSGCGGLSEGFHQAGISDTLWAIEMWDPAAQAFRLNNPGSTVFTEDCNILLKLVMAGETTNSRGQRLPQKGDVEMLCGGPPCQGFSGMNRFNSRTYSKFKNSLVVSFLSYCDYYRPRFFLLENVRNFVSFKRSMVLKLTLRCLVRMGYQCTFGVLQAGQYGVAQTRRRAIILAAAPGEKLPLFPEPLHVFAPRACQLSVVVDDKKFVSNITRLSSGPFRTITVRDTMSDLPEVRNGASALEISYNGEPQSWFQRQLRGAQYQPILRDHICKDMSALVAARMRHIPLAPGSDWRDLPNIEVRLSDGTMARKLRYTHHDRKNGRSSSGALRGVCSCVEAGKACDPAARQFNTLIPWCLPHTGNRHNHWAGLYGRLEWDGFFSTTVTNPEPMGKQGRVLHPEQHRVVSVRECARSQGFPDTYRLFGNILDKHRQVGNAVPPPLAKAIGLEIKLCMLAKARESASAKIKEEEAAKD
Assay [11] concerns the target T1, DNA (cytosine-5)-methyltransferase 1. Description: Inhibition of DNMT1 in human DOHH-2 cells assessed as inhibition of DNA methylation incubated for 48 hrs by Western blot analysis. It is filed as cell-based. The settings on record: dose 10-1000 nM.
Assay [12] has the same target. In words: Inhibition of DNMT1 in human DOHH-2 cells assessed as inhibition of H3K9 methylation level incubated for 48 hrs by Western blot analysis. It counts as cell-based. The settings on record: dose 10-1000 nM.
The nature of assay [13]: Upregulation of BAX mRNA level in human DOHH-2 cells assessed as fold change at 300 nM measured after 6 days by PCR analysis. It counts as functional. The following applies: time 6 day.
Assay [14] has as its system TMD8. Description: Antitumor activity against human TMD8 cells xenografted in mouse model assessed as tumor inhibition rate at 2.5 mg/kg, ip QD relative to control. It counts as functional. More on the design: scale not given: the % may be the effect or the level left.
Assay [15] is described as follows: Antitumor activity against human TMD8 cells harbouring […] xenografted in mouse model assessed as body weight change at 2.5 mg/kg, ip QD relative to control. It is filed as functional.
The nature of assay [16]: Antitumor activity against human TMD8 cells harbouring TP53 mutant xenografted in mouse model assessed as tumor inhibition rate at 2.5 mg/kg, ip QD relative to control. More on the design: scale not given: the % may be the effect or the level left. It counts as functional.
A short description of assay [17]: Upregulation of FAS mRNA level in human DOHH-2 cells assessed as fold change at 300 nM measured after 6 days by PCR analysis. It counts as functional. The settings on record: time 6 day.
Assay [18] in a line: Antitumor activity against human TMD8 cells harbouring TP53 mutant xenografted in mouse model assessed as body weight change at 2.5 mg/kg, ip QD relative to control. It is filed as functional.
Assay [19] in a line: Antitumor activity against human TMD8 cells harbouring […] xenografted in mouse model assessed as tumor inhibition rate at 2.5 mg/kg, ip QD relative to control. It counts as functional. More on the design: scale not given: the % may be the effect or the level left.
Assay [20] deals with U-937. Description: Antiproliferative activity against human U-937 cells assessed as inhibition of cell viability measured after 72 hrs by MTT assay. It counts as functional, cell-based. The following applies: U-937, 72 h.
Assay [21] addresses DNA (cytosine-5)-methyltransferase 3B (Homo sapiens, UniProt Q9UBC3). In words: Inhibition of DNMT3B (unknown origin) preincubated for 15 mins followed by substrate and [3H-SAM] addition and measured after 60 mins by microbeta analysis.
In assay [22] the test system is MOLM-13. In words: Antiproliferative activity against human MOLM-13 cells assessed as inhibition of cell viability measured after 72 hrs by MTT assay. The settings on record: MOLM-13, 72 h. It counts as functional, cell-based.
The subject of assay [23] is HT-29. Description: Antiproliferative activity against human HT-29 cells assessed as inhibition of cell viability measured after 72 hrs by MTT assay. It is filed as functional, cell-based. The following applies: HT-29, 72 h.
Assay [24] has as its system HeLa. In words: Antiproliferative activity against human HeLa cells assessed as inhibition of cell viability measured after 72 hrs by MTT assay. It counts as functional, cell-based.
The subject of assay [25] is A549. In words: Antiproliferative activity against human A549 cells assessed as inhibition of cell viability measured after 72 hrs by MTT assay. It counts as functional, cell-based. The following applies: A549, 72 h.
Assay [26] deals with THP-1. Description: Antiproliferative activity against human THP-1 cells assessed as inhibition of cell viability measured after 72 hrs by MTT assay. It counts as functional, cell-based. The following applies: THP-1, 72 h.
Assay [27] relates to MV4-11. Description: Antiproliferative activity against human MV4-11 cells assessed as inhibition of cell viability measured after 72 hrs by MTT assay. The settings on record: MV4-11, 72 h. It is filed as functional, cell-based.
Assay [28] relates to HCT-116. Description: Antiproliferative activity against human HCT-116 cells assessed as inhibition of cell viability measured after 72 hrs by MTT assay. It is filed as functional, cell-based. The following applies: HCT-116, 72 h.
Assay [29] has as its system HepG2. In words: Antiproliferative activity against human HepG2 cells assessed as inhibition of cell viability measured after 72 hrs by MTT assay. It is filed as functional, cell-based. The settings on record: HepG2, 72 h.
Assay [30] relates to MDA-MB-231. In words: Antiproliferative activity against human MDA-MB-231 cells assessed as inhibition of cell viability measured after 72 hrs by MTT assay. It is filed as functional, cell-based. The settings on record: MDA-MB-231, 72 h.
The target of assay [31] is T1, DNA (cytosine-5)-methyltransferase 1. Description: Inhibition of DNMT1 (unknown origin) at 5 uM preincubated for 15 mins followed by substrate and [3H-SAM] addition and measured after 60 mins by microbeta analysis relative to control. The following applies: time 75.0 min.
The subject of assay [32] is RPMI-8226. In words: Antiproliferative activity against human RPMI-8226 cells assessed as inhibition of cell viability measured after 72 hrs by MTT assay. It counts as functional, cell-based. The settings on record: RPMI-8226, 72 h.
Assay [33] relates to NCI-H1299. In words: Antiproliferative activity against human NCI-H1299 cells assessed as inhibition of cell viability measured after 72 hrs by MTT assay. It is filed as functional, cell-based. The settings on record: NCI-H1299, 72 h.
Assay [34] concerns the target T1, DNA (cytosine-5)-methyltransferase 1. In words: Inhibition of DNMT1 (unknown origin) at 1 uM preincubated for 15 mins followed by substrate and [3H-SAM] addition and measured after 60 mins by microbeta analysis relative to control. The following applies: time 75.0 min.

In the case of `Nc1cc(F)ccc1NC(=O)c1ccc(CNC(=O)/C=C/c2cccnc2)cc1` [TUCIDINOSTAT], the Activity in [1] is 51.5%; in assay [2] it was 61%; in [3] it was 2.5%; in assay [4], -2.3%.
Turning to `CCc1c(C#N)c(SC(C(N)=O)c2ccccc2)nc(N2CCC(N)CC2)c1C#N` (stereo not drawn), the IC50 in [5] was 16700 nM; in assay [6], 28900 nM; in assay [7] it was 11100 nM; in [8], 21400 nM; in assay [9], 19800 nM.
Consider `COc1cc2c(NC3CCN(C)CC3)cc(-c3ccc(C)o3)nc2cc1OCCCN1CCCC1`, for which the IC50 in [6] amounted to 2130 nM; in assay [7], 230 nM; in assay [8], 190 nM; in [9] it was 410 nM. Also, the inhibition result in [10] was “Active”. The inhibition result in assay [11] and in [12] was “Dose-dependent-effect” in each case.
Turning to `Nc1ncn([C@@H]2O[C@H](CO)[C@@H](O)[C@H]2O)c(=O)n1` [AZACITIDINE], the “fold change (FC)” value in [13] is 1.86; in assay [17], 1.8. Further, the Activity in [14] is 53.02%; in assay [15] it was -5.9%; in assay [16] it was 43.6%; in [18] it was -5.9%; in assay [19], 52.1%. Moreover, the IC50 turned out to be 3280 nM in [5]; 1830 nM in assay [6]; 340 nM in assay [7]; 2840 nM in assay [8]; 1080 nM in assay [9].
In the case of `Cc1cc(Nc2ccc(NC(=O)c3ccc(Nc4ccnc5ccccc45)cc3)cc2)nc(N)n1`, the IC50 worked out at 4120 nM in assay [20]; 1910 nM in assay [21]; 1190 nM in assay [22]; 490 nM in assay [23]; 21600 nM in [24]; 9500 nM in assay [25]. Also, the IC50 in [26] came out at 2470 nM; in assay [27], 980 nM; in assay [28] it was 820 nM; in assay [29] it was 11600 nM; in assay [30] it was 5390 nM; in assay [32] it was 1340 nM. Also, the IC50 in assay [33] amounted to 12200 nM. For the same compound, the inhibition in assay [31] was determined as 3.4%; in assay [34], 77%.
